The values below come from US9745328B2, “Flap modulators” (JANSSEN PHARMACEUTICA NV, priority 2013, dated 2017).

As a reminder, the Ki is a dissociation constant, usually derived from enzyme kinetics or from competition with a known ligand. A low value points to a stronger hold on the target. The term IC50 denotes the point on the concentration scale where inhibition reaches its midpoint.

Experiment [1] concerns the target human FLAP (Homo sapiens (Human), UniProt P20292). Description: FLAP binding assay (HTRF format). The method in brief:
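Binding values are averages from two separate assay plates, with each sample run in duplicate per plate. Data are expressed as an HTRF ratio.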
Background: TR-FRET usually uses a lanthanide donor and a delayed reading to cut background.

For experiment [2], the system named is leukotriene pathway in human whole blood (LTB4). As to the kind of experiment: Human whole blood assay (LTB4 levels after calcium ionophore A23187 stimulation). In kind it is cell-based. In outline:
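Compounds are pre-incubated 15 min at 37° Celsius in RPMI-diluted (1:1) heparinised whole blood before a 30 min A23187 stimulus (7 μg/mL). Plasma LTB4 is read by immunoassay kit, with IC50 calculated from a 4-parameter equation.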

[3] abbreviates: human FLAP wild type, Table 6 (additional runs).
[4] abbreviates: Homo sapiens, human whole blood diluted 1:1, A23187 stimulation; Table 6 (additional runs); read-out: Human Whole Blood LTB4 IC50 1:1.
Setting [5] is: Table 6 (additional runs), human FLAP wild type.
The mark [6] stands for this setting: Homo sapiens, Table 6 (additional runs); human whole blood diluted 1:1, A23187 stimulation; read-out: Human Whole Blood LTB4 IC50 1:1.

The structures appear in SMILES notation. Where a name gives a salt, the structure may show the parent alone. Read-outs that look alike come from different tables or passages of the source.

Sequence of human FLAP (P20292 whole entry): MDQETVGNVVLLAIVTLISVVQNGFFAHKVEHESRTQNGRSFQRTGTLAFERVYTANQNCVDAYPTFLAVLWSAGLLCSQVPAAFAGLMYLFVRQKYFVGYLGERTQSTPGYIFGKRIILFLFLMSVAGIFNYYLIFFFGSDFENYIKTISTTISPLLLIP

With `CC(=O)N1CCC(S(=O)(=O)c2ncccc2-c2ccc(-c3cnc(N)cn3)c(F)c2)CC1` [Example 816, 1-((3-(4-(2-Aminopyrazin-5-yl)-3-fluorophenyl)pyridine-2-yl)sulfonyl)piperidin-1-yl)ethanone hydrogen chloride salt], in experiment [1] (setting [3]), the affinity corresponds to a Ki of 0.037 µM. Moreover, the 50% inhibitory concentration (IC50) in experiment [2] (setting [4]) worked out at 0.061 µM.

For the molecule `CC(C)c1ccccc1-c1ccc(-c2cnc(N)cn2)c(F)c1` [Example 482, 5-[3-Fluoro-2′-(1-methylethyl)biphenyl-4-yl]pyrazin-2-amine], the Ki in experiment [1] (setting [3]) amounted to 0.0609 µM. Further, in experiment [2] (setting [4]), the 50% inhibitory concentration (IC50) worked out at 0.32 µM.

Consider `Nc1cnc(-c2ccc(-c3ccccc3OC3CCS(=O)(=O)CC3)cc2F)cn1` [Example 885, 5-{2′-[(1,1-Dioxidotetrahydro-2H-thiopyran-4-yl)oxy]-3-fluorobiphenyl-4-yl}pyrazin-2-amine], for which the inhibition constant Ki in experiment [1] (setting [3]) came to 0.0408 µM. For the same molecule, in experiment [2] (setting [4]), the IC50 came to 1.06 µM.

In experiment [1] (setting [3]), `CC(=O)N1CCC(S(=O)(=O)c2nc(C(F)(F)F)ccc2-c2ccc(-c3cnc(N)nc3)c(F)c2)CC1` [Example 911, 5-(4-{2-[(1-Acetylpiperidin-4-yl)sulfonyl]-6-(trifluoromethyl)pyridin-3-yl}-2-fluorophenyl)pyrimidin-2-amine] yielded an inhibition constant Ki of 0.166 µM. In experiment [2] (setting [4]), the concentration for half-maximal inhibition (IC50) was determined as 0.0287 µM.

In experiment [1] (setting [3]), `Nc1cnc(-c2ccc(-c3cccnc3Oc3cccnc3)cc2F)cn1` [Example 896, 5-{2-Fluoro-4-[2-(pyridin-3-yloxy)pyridin-3-yl]phenyl}pyrazin-2-amine] gave a Ki of 0.0221 µM. For the same molecule, the IC50 in experiment [2] (setting [4]) is 0.466 µM.

Turning to `Nc1cnc(-c2ccc(-c3ccccc3S(=O)(=O)N3CCNCC3)cc2F)cn1` [Example 46, 5-[3-Fluoro-2′-(piperazin-1-ylsulfonyl)biphenyl-4-yl]pyrazin-2-amine], in experiment [1] (setting [5]), the inhibition constant (Ki) stood at 0.0615 µM. Further, in experiment [2] (setting [6]), the IC50 came to 0.177 µM.

As to `Nc1cnc(-c2ccc(-c3cccnc3S(=O)(=O)C3CC3)cc2F)cn1` [Example 829, 5-{4-[2-(Cyclopropylsulfonyl)pyridin-3-yl]-2-fluorophenyl}pyrazin-2-amine formic acid salt], the inhibition constant Ki in experiment [1] (setting [3]) was 0.0057 µM. Moreover, the IC50 in experiment [2] (setting [4]) stood at 0.009 µM.

Take `Nc1cnc(-c2ccc(-c3ccc(C(F)(F)F)nc3S(=O)(=O)C3CCOCC3)cc2F)cn1` [Example 906, 5-{2-Fluoro-4-[2-(tetrahydro-2H-pyran-4-ylsulfonyl)-6-(trifluoromethyl)pyridin-3-yl]phenyl}pyrazin-2-amine]: the Ki in experiment [1] (setting [3]) amounted to 0.0003 µM. In addition, the IC50 in experiment [2] (setting [4]) is 0.002 µM.

With `Nc1cnc(-c2ccc(-c3ccccc3OC(F)(F)F)cc2F)cn1` [Example 475, 5-[3-Fluoro-2′-(trifluoromethoxy)biphenyl-4-yl]pyrazin-2-amine], in experiment [1] (setting [3]), the affinity, expressed as Ki, was 0.0896 µM. Further, the IC50 in experiment [2] (setting [4]) stood at 4.18 µM.

`CCCS(=O)(=O)Nc1ccccc1-c1ccc(-c2cnc(N)cn2)c(F)c1` [Example 36, N-[4′-(5-Aminopyrazin-2-yl)-3′-fluorobiphenyl-2-yl]propane-1-sulfonamide] yielded an inhibition constant (Ki) in experiment [1] (setting [5]) of 0.0081 µM. Further, the concentration for half-maximal inhibition (IC50) in experiment [2] (setting [6]) stood at 0.137 µM.

Molecule `C[C@H](CO)NS(=O)(=O)c1ccccc1-c1cnc(-c2cnc(N)nc2)c(F)c1` [Example 881, 2-[6-(2-Aminopyrimidin-5-yl)-5-fluoropyridin-a-yl]-N-[(1R)-2-hydroxy-1-methylethyl]benzenesulfonamide] came in with an inhibition constant Ki in experiment [1] (setting [3]) of 0.076 µM. For the same molecule, the 50% inhibitory concentration (IC50) in experiment [2] (setting [4]) came out at 0.128 µM.
